Data: US10143202B2, “Synergistic blends of antimicrobials useful for controlling microorganisms in industrial processes” (Solenis Technologies, L.P., priority 2014, dated 2018)
Values after ≈ are worked out from the molar mass of the structure shown.

What was measured:
Lactobacillus plantarum = experiment: Minimal Inhibitory Concentration (MIC), two-fold dilution series in 96 well microplate, antimicrobial used alone; type: cell-based; settings: pH 5, 18-24 hours, complete inhibition of growth
Protocol: This is the lowest concentration of a substance or substances which can achieve complete inhibition of growth.
In order to determine the Minimal Inhibitory Concentration, a two-fold dilution series of the antimicrobial is constructed with the dilutions being made in growth media. The dilutions are made in a 96 well microplate such that each well has a final volume of 280 μl of media and antimicrobial. […] After the dilution series is constructed the wells receive an inoculum of microbe suspended in growth media such that the final concentration of microbes in the well is ˜5×10^5 cfu/ml. In these examples the test microbe used is Lactobacillus plantarum. The cultures are incubated at an appropriate temperature for 18-24 hours, and the wells scored as positive or negative for growth based on a visual examination for turbid wells.

Weisella confusa = settings: cited from earlier work
fermentation = settings: cited from earlier work

Compound: O=C(O)CC(O)(CC(=O)O)C(=O)O [Citric Acid, citric acid]
- MIC (Lactobacillus plantarum; Lactiplantibacillus plantarum, read-out: Citric Acid MIC (QC), Used Alone): 6250 µg/mL (≈ 32.5 mM)
- Citric Acid MIC (QC), Used Alone (Lactobacillus plantarum): 6250 ppm

Compound: [O][Cl+][O-] [ClO2, chlorine dioxide]
- ClO2 MIC (QA), Used Alone (Lactobacillus plantarum): 54 ppm

Compound: Virginiamycin
- Concentration required to inhibit growth of Weisella confusa (Weisella confusa): over 25 mg/L
- Concentration that will suppress fermentation (fermentation): over 2 mg/L
